In patent US9011882B2, “Dimethylarginine dimethylaminohydrolase inhibitors and methods of use thereof” (The Board of Trustees of the Leland Stanford Junior …, priority 2012, dated 2015):

Columns and labels:
[1] = tested on: human alveolar epithelial cells (A-549); test: Nitric oxide production, total nitrite (NOx) by Griess reaction; type: cell-based; details: 24 hours
Method: Total nitrite (NOx) was measured using Griess reaction. Data are Mean±SEM from duplicate experiments. *p<0.05.

[2] = tested on: mouse alveolar epithelial (MLE-12) cells
Description: (§1) Cytotoxicity of PPIs. […] Mean+/−SEM from Duplicate Experiments. * p<0.05.

[3] = tested on: human alveolar epithelial cells (A-549)
Description: as §1

[4] = tested on: human lung epithelial cells (A-549); test: Intracellular ADMA by ELISA in lung epithelial cells; type: cell-based; details: Omeprazole at 10, 20, 50 or 100 μM, 24 hours
Method: After 24 hours, ADMA was measured by enzyme-linked immunosorbent assay (ELISA). […] Data are Mean±SEM from duplicate experiments. *p<0.05 compared to vehicle (“Veh”).

DDAH = DDAH (Homo sapiens (Human), UniProt O94760); test: Dilution assay for reversibility of DDAH inhibition (fluorometric); type: biochemical
Method: In order to understand the mechanism by which PPIs inhibit DDAH activity and to determine whether the inhibition mechanism is reversible, a dilution study was conducted, in which DDAH (at a 100-fold excess to the final concentration used) was pre-incubated with excess PPI (100×, 10× or 1× the IC50 value) and then inhibition of enzymatic activity was determined using a fluorometric assay as described above. For a reversible inhibitor that binds to a single site of an enzyme (1:1 stoichiometry), it is anticipated that inhibition can be saturated.

human DDAH1 [5] = target: T1, human DDAH1 (Homo sapiens (Human), UniProt O94760); test: Fluorimetric CPM assay of DDAH activity (SMTC substrate); type: biochemical; details: for inhibition of DDAH activity, CPM fluorometric validation: fresh powders from vendors, vs vehicle
Method: (§2) The activity of human DDAH1 was quantified using fluorimetric assay by incubating the enzyme with an artificial substrate S-methyl-thiocitrulline (SMTC). DDAH metabolizes SMTC into L-citrulline and methanethiol (CH3—SH). The thiol released from the reaction can be monitored fluorimetrically by adding 7-Diethylamino-3-(4-maleimidophenyl)-4-methylcoumarin (CPM).
as §2, with “(SMTC), as described in Example 1.” for “(SMTC).”
For the secondary assay, a fluorimetric assay that uses SMTC as a substrate was adapted. DDAH metabolizes SMTC into L-citrulline and methanethiol (CH3—SH). In brief, DDAH (30 nM final concentration) was mixed with SMTC (100 μM final concentration), CPM (50 μM final concentration) and screening buffer (containing a final concentration of 0.01% Triton-X100 and 1 mM EDTA). The reaction mix was added to black 384-well plates to validate primary hits that modulate DDAH activity. The release of CH3—SH was monitored fluorimetrically by adding 7-Diethylamino-3-(4-maleimidophenyl)-4-methylcoumarin (CPM) as described in Linsky (Linsky, T. & Fast, W. A continuous, fluorescent, high-throughput assay for human dimethylarginine dimethylaminohydrolase-1. J Biomol Screen 16, 1089-1097 (2011)).

[6] = tested on: human alveolar epithelial cells (A-549); test: Apoptosis, Cell Death Detection ELISA, A23187-induced; type: cell-based; details: 1 μM A23187, 24 hours
Method: Apoptosis as measured by mono- and oligo-nucleosome enrichment was determined using Cell Death Detection ELISA^PLUS (Roche). Histone-DNA complex (His-DNA CPx) was included as a control. […] Data shown are Mean+/-SEM from Duplicate Experiments. * p<0.05.

[7] = tested on: mouse alveolar epithelial cell; test: BrdU Cell Proliferation Assay, mouse alveolar epithelial cells; type: cell-based; details: mouse cell line, FIG. 25
Description: A “vehicle only” sample served as a “no DDAH” control.

[8] = tested on: Human lung epithelial cell line (A-549); test: BrdU Cell Proliferation Assay, human alveolar epithelial cells; type: cell-based; details: FIG. 24
Method: (§3) Cells were seeded at 5×10^3 cells/well in a 96-well plate (200 μL media per well) & incubated overnight at 37° C./5% CO2. The next day, the conditioned media was aspirated and the cells were PBS-rinsed prior to (fetal bovine) serum starving them for 2 hours followed by 22 hours low serum (0.1% FBS) in order to synchronize them.
On day-3, 2 hours before the end of the 24 hours low serum period, DDAH inhibitors (Proton pump inhibitors; PPIs) were added in a 100 μL solution of 0.1% FBS DMEM. The following DDAH inhibitors were used: Lansoprazole; Esomeprazole; and Rabeprazole. A “vehicle only” sample served as a “no DDAH” control. In addition, Media only (blank control) without cells, and Cells only (background control) were included in the assay. Two hours later, 100 μL of DMEM containing 10% FBS was added to each well in order to serum-stimulate (for 24 hours) the cells and make the total well content to 200 μL. Four hours prior to the end of the 24 hrs, 20 μL of 1:500 diluted Bromodeoxyuridine (BrdU) (diluted in fully-supplemented DMEM) was added to all wells except the “Cells only” control wells.
The incorporation of BrdU into newly synthesized DNA by actively proliferating cells was detected immunochemically using an Antibody directed against BrdU using the recommended protocol and the BrdU Cell Proliferation Assay kit (Millipore; Cat #2750). […]

[9] = tested on: Lung fibroblasts from patients with IPF; test: Sircol collagen assay, TGF-β stimulated IPF lung fibroblasts; type: cell-based, human; details: Omeprazole 50 or 100 μM; L-257 50 μM; A83-01 20 μM; 24 hours
Method: as §3, with “4×10^4” for “5×10^3”, “6-well” for “96-well”, “(1.2 mL” for “(200 μL”, “and” for “&”, “rinsed with phosphate-buffered saline (PBS)” for “PBS-rinsed”, “(0.1% fetal bovine serum;” for “(0.1%”
On day-3, the cells were stimulated with fully-supplemented media (containing 10% FBS) in the absence or presence of recombinant transforming growth factor-1 (TGF-β1) (at 10 ng/mL final conc) in the presence of a DDAH inhibitor (DDAHi; the proton pump inhibitor (PPI) lansoprazole at a final concentration of 20 μM) or vehicle for 24 hours.
The acid-soluble collagen content in each well was determined in the conditioned media using the Sircol collagen assay (Accurate Chemical and Scientific Corp; CLRS 1000) following the recommended protocol.
The amount of collagen in each well was estimated from a standard curve and the collagen content in each sample was normalized to total cellular protein from the respective well and was expressed as μg collagen per milligram of protein.
Lung fibroblasts were isolated from patients diagnosed with IPF according to International Standards. Isolated fibroblasts were seeded at 6×10^4 and synchronized the following day.
The acid-soluble collagen content was determined using the Sircol collagen assay (Accurate Chemical and Scientific Corp; CLRS 1000) following the recommended protocol.

[10] = tested on: human microvascular endothelial cells (HMEC-1); test: Intracellular ADMA by ELISA in endothelial cells; type: cell-based; details: 20 μM, 24 hours, compared to vehicle control
Method: (§4) First, human microvascular endothelial cells (HMEC-1; ATCC) were seeded in 75 cm^2 cell culture flasks and cultured in fully supplemented DMEM (Invitrogen cat #11995; supplemented with 10% fetal bovine serum (FBS), 4 mM HEPES; GIBCO 15630 and penicillin/streptomycin). The cells were incubated at 37° C./5% CO2 until ˜60% confluency. The cells were then washed with phosphate buffered saline (PBS) and plain DMEM (DMEM with no addition of serum or the other supplements) was mixed with esomeprazole (20 μM final concentration from 100 mM stock) and added to the cells. […] After ˜4 hrs of incubation, the media was aspirated from each flask and the cells were cultured in fully supplemented DMEM as described above and incubated at 37° C./5% CO2 for another 20 hrs. The serum was initially withdrawn due to the possibility that esomeprazole would interact with Cys containing serum proteins and fail to internalize at effective concentrations.
After 24 hrs, the cells were harvested. Total cellular protein was estimated as described and ADMA was measured by enzyme-linked immunosorbent assay (ELISA) following the manufacturer's recommendations; DLD Diagnostika, Hamburg, Germany).
as §4, with “FBS,” for “fetal bovine serum (FBS),”, “PBS” for “phosphate buffered saline (PBS)”, “PD 404” for “esomeprazole”, “conc” for “concentration”, “The serum was initially withdrawn due to the possibility that esomeprazole would interact with Cys containing serum proteins and fail to internalize at effective concentrations.” left out
After 24 hours, the cells were harvested. Total cellular protein was estimated as described and ADMA was measured by ELISA following the manufacturer's recommendations; DLD Diagnostika, Hamburg, Germany).

human DDAH1 [11] = target: T1, human DDAH1; test: Time-dependence kinetics study of DDAH inhibition; type: biochemical

T1 sequence (O94760 whole entry): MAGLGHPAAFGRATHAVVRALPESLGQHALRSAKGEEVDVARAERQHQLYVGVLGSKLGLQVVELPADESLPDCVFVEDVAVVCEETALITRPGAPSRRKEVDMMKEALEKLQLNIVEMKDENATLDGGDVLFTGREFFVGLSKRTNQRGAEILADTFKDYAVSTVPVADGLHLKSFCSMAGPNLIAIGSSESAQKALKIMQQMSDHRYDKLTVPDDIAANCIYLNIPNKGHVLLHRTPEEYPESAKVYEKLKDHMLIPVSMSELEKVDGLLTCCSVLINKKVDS
DDAH, sequence (O94760 whole entry): as above

Row | SMILES | inhibition of DDAH activity, CPM fluorometric validation (human DDAH1 [5]) | incorporation of BrdU [7] | incorporation of BrdU [8] | TGF-β induced collagen synthesis [9] | mode of inhibition in time-dependence kinetics (human DDAH1 [11]) | other results
1 | COc1ccc2[nH]c([S+]([O-])Cc3ncc(C)c(OC)c3C)nc2c1 (centres unmarked) [Omeprazole] | inhibited DDAH activity significantly | reduced incorporation of BrdU | reduced incorporation of BrdU | reduced TGF-β induced collagen synthesis |  | levels of nitric oxide (total nitrite, NOx) [1]: reduced the levels of nitric oxide; concentration up to which cytotoxicity not observed (LDH release) [2]: ≥ 300 µM; concentration up to which not cytotoxic (LDH release) [3]: ≥ 300 µM; intracellular ADMA [4]: increase in intracellular ADMA; reversibility of DDAH inhibition upon dilution (DDAH; pre-incubation with 100×, 10× or 1× the IC50 value): reversible inhibition of DDAH; IC50 (DDAH; value given in FIG. 20 legend): ~60 µM; level of apoptosis (mono- and oligo-nucleosome enrichment) [6]: reduced the level of apoptosis
2 | COCCNC(N)=NCCC[C@H](N)C(=O)O [L-257] |  | reduced incorporation of BrdU | reduced incorporation of BrdU | reduced TGF-β induced collagen synthesis |  | increase in intracellular ADMA [10]: 68%
3 | Cc1cccc(-c2nn(C(=S)Nc3ccccc3)cc2-c2ccnc3ccccc23)n1 [A83-01] |  |  |  | reduced TGF-β induced collagen synthesis |  | 
4 | CC(=O)[O-].[Hg+][c]1ccccc1 [phenylmercuric acetate] |  |  |  |  | progressive inhibition | IC50 (human DDAH1 [5]): < 0.78 µM
5 | O=C(O)c1cc[c]([Hg][Cl])cc1 [chloromercuribenzoate, 4-chloromercuribenzoic acid, reference compound] | confirmed known DDAH inhibitors |  |  |  | progressive inhibition | 
